Test system: U87MG cells
Experiment: Cell proliferation (cell confluence), IncuCyte Live-Cell Analysis System
Format: cell-based, human
Conditions: Mito-PEG5-ATO 0.15 µM, AZD-3965 600 µM
Experimental: The following cell lines were obtained from the American Type Culture Collection (Manassas, VA), where they were regularly authenticated: MiaPaCa-2 (ATCC Cat# CRL-1420, human pancreatic cancer cells), U87MG (ATCC Cat# HTB-14, human brain cancer cells), A549 (ATCC Cat# CCL-185, lung cancer cells), and HCT-116 (ATCC Cat# CCL-247, colon cancer cells). All cell lines were grown at 37 °C in 5% carbon dioxide. MiaPaCa-2 cells were maintained in Dulbecco's Modified Eagle Medium (Thermo Fisher Scientific, Waltham, MA; Cat# 11965) supplemented with 10% fetal bovine serum. U87MG, A549, and HCT-116 cells were maintained in RPMI 1640 medium (Thermo Fisher Scientific, Cat# 11875), supplemented with 10% fetal bovine serum. All cells were stored in liquid nitrogen and used within 20 passages after thawing.
The IncuCyte Live-Cell Analysis System was used to monitor cell proliferation[3],[33],[67]. As shown in previous publications[3],[67], this imaging system is probe-free and noninvasive, and enables continuous monitoring of cell confluence over several days. […] Cells were then treated with Mito-PEG-ATO analogs, and the cell confluency was recorded over several days in the IncuCyte Live-Cell Analysis System.
Figure S4. […] (a) Effects of Mito-PEG-ATO analogs on the proliferation of U87MG cells were monitored in the IncuCyte Live-Cell Analysis System. […]

Compound: Cc1[nH]nc(C(F)(F)F)c1Cc1sc2c(c1C(=O)N1C[C@](C)(O)CO1)c(=O)n(C)c(=O)n2C(C)C [AZD-3965]
- Inhibition of cell proliferation in combination with Mito-PEG5-ATO: Synergistic inhibition
